According to the METLIN SMRT retention time set (Domingo-Almenara et al. 2019):

Experiment: gradient 5% acetonitrile 3 min, to 50% in 2 min, to 85% in 15 min, held 3 min, 100 µL/min
Details: column: Zorbax Extend-C18 2.1 x 50 mm; eluents: water / acetonitrile, 0.1% formic acid
Summary of the method: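 Retention time was recorded from adduct peaks, which were picked computationally and each inspected manually. Pure standards ran in mixtures of ~100 molecules on HPLC coupled to a quadrupole time-of-flight mass spectrometer, in positive and negative ionization mode, through a Zorbax Extend-C18 column (2.1 × 50 mm, 1.8 μm) at 100 μL/min. Eluents were water and acetonitrile, each with 0.1% formic acid.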

Structure (SMILES) | RP-LC retention time
Fc1ccc(OCc2cn(C3CN(Cc4ccc(F)cc4F)C3)nn2)cc1 | 703 s
CC(C)CCNC(=O)C1(C)CN(S(=O)(=O)c2ccccc2)CC(=O)N1CCCc1ccccc1 (stereo unspecified) | 1050 s
Cc1c2cnn(CC(=O)NCc3ccco3)c(=O)c2c(C)n1Cc1cccc(Cl)c1 | 862 s
Cc1ccc(-n2c(=O)n(CC(=O)Nc3ccccc3C)c3cccnc32)cc1 | 865 s
O=C(NCc1ccc(F)c(Cl)c1)c1cn2ccccc2n1 | 723 s
CC(C)c1nc2c(NC(=O)c3ccc(Br)o3)cccn2n1 | 908 s
CC(=O)Nc1cc2c(cc1S(=O)(=O)c1ccc(C)cc1)n(C)c(=O)n2C | 683 s
CCN1C(=O)C2(CCN(S(=O)(=O)c3ccc4c(c3)CCCC4)CC2)c2ccccc21 | 1220 s
Cc1cc(-c2nnc(NC(=O)c3cnn(-c4ccccc4)c3C)o2)c(C)o1 | 798 s
CCN(CC)C(=O)c1ccc(-c2nc3cc(NS(=O)(=O)c4ccccc4Cl)ccc3n2C)cc1 | 695 s
O=C(c1cnc2ccccc2n1)N1CC(c2nc(-c3cccc(C(F)(F)F)c3)no2)C1 | 1030 s
Cc1ccc(N2C(=O)C3N=NN(Cc4nc(-c5cccc(Br)c5)no4)C3C2=O)cc1C (stereo unspecified) | 1120 s
CCN1C(=O)COc2ccc(-c3noc(CNC(=O)C(c4ccccc4)c4ccccc4)n3)cc21 | 975 s
CCCNC(=O)CCc1nc2ccccc2n(CC(=O)Nc2ccc(CC)cc2)c1=O | 852 s
COCc1nnc(C(=O)Nc2ccc(C(=O)NCCc3c[nH]c4ccc(OC)cc34)cc2)s1 | 790 s
Cc1cc(N2CCN(c3ccccn3)CC2)n2nc(C(F)(F)F)c(-c3ccccc3Cl)c2n1 | 833 s
COc1cccc2c(Nc3ccc(N(C)C)cc3)cc(C(=O)N3CCSCC3)nc12 | 682 s
COc1cc(NC(=O)N2CCN(CCn3c(C(F)(F)F)nc4cccnc43)CC2)cc(OC)c1 | 642 s
Cc1nc2cc(-c3noc(CNC(=O)Cc4ccc(Cl)cc4)n3)ccc2o1 | 858 s
COCCCNC(=O)C1CCN(Cc2cc3ccccc3n2Cc2ccccc2Cl)CC1 | 713 s
Cc1ccc(NC(=O)Cn2nc(N(C)C)c3ccccc3c2=O)cc1Cl | 958 s
O=C(c1ccc(-c2ccnc(N3CCCCC3)n2)cc1)N1CCC2(CC1)OCCO2 | 882 s
COc1ccc(CCN2C(=O)C(NC(=O)C3CC3)(C(F)(F)F)C3=C2CC(C)(C)CC3=O)cc1OC (stereo unspecified) | 847 s
Cc1ccccc1-c1noc(CN2C(=O)C(C)Oc3ccccc32)n1 (stereo unspecified) | 1110 s
O=C(CN1C(=O)c2ccccc2C1=O)Nc1nnc(-c2ccc3c(c2)CCCC3)o1 | 856 s
Cc1nnc2c(=O)n(CC(=O)NCc3ccccc3C(F)(F)F)c3cccnc3n12 | 734 s
Cc1ccc2nc(-c3cccc(Br)c3)c(C)c(C(=O)O)c2c1 | 694 s
Cc1ccc(-c2nc3cnccn3c2Nc2ccc(C(=O)O)cc2)cc1 | 706 s

Structure (SMILES) | RP-LC retention time
Cc1ccc(-c2noc(Cn3nc(-c4ccccc4F)ccc3=O)n2)cc1 | 1050 s
Cc1cc(F)ccc1NC(=O)Cn1nc2cc(-c3ccccn3)nc(C)n2c1=O | 746 s
CC(C)Cn1cc(CCNS(=O)(=O)c2cccc(C(F)(F)F)c2)c2cccnc21 | 1030 s
COCc1cc(=O)n(CC(=O)N2CCN(c3ccc(F)cc3)CC2)c(N2CCOCC2)n1 | 819 s
Cn1cc2c(n1)c(=O)n(Cc1ccccc1)c(=O)n2CC(=O)NCc1ccccc1 | 769 s
Cc1ccccc1-c1nc(-c2ccc(S(=O)(=O)N3CCOCC3)cc2)no1 | 1170 s
COc1cccc(-n2nnc(C(=O)O)c2-c2ccncc2)c1 | 628 s
CCc1cccc(C)c1Nc1c(-c2ccc(F)cc2)nc2cnccn12 | 1010 s
CCCN1C(=O)COc2ccc(-c3noc(COc4ccc(F)cc4)n3)cc21 | 1090 s
N#Cc1cccc(S(=O)(=O)N2CCc3nc(-c4ccc(Cl)cc4)ncc3C2)c1 | 1130 s
Cc1ccc(-c2nc(-c3ccc(-n4cccn4)nc3)no2)cc1 | 1330 s
O=c1c2ccccc2n(Cc2nc(-c3ccccc3)no2)c(=O)n1Cc1ccco1 | 1050 s
Cc1nnc2c(=O)n(CC(=O)NCc3ccc(F)c(Cl)c3)c3cccnc3n12 | 723 s
CCOc1cc(C(=O)N2CCN(c3c(C)n(C)c(=O)n(C)c3=O)CC2)cc(OCC)c1OCC | 810 s
CCCOc1ccc(NC(=O)c2cc(=O)c3ccc(C)cc3o2)c2cccnc12 | 686 s
N#Cc1ccc(NC(=O)Cn2cccc(-c3nc(-c4ccccc4)no3)c2=O)cc1 | 837 s
CCN1CCCn2cc(S(=O)(=O)Nc3cc(C)ccc3C)cc2C1=O | 756 s
CCc1nnc(-c2ccc3ccn(CC(=O)NCCc4sccc4C)c3c2)o1 | 1170 s
COCCC1CCN(C(=O)COc2ccccc2)CC1 | 800 s
Cc1ncc2c(n1)C[C@@H]1CC[C@H]2N1C(=O)c1ccccn1 | 603 s
Cn1cc(C(=O)NCCC2=CCCCC2)c2nn(-c3ccccc3)c(=O)c-2c1 | 991 s
COCCN1CCn2cc(S(=O)(=O)Nc3ccc(C)c(C)c3)cc2C1=O | 745 s
Cc1ccc(C2CC(=O)c3cnc(N4CCN(c5ccccc5)CC4)nc3C2)cc1 (stereo unspecified) | 1340 s
O=S(=O)(Cc1ccccc1)N1CCC(Cc2nncn2-c2ccccc2)C1 (stereo unspecified) | 729 s
COC(=O)C1=CN(CC(=O)N2CCN(c3ccc(F)cc3)CC2)S(=O)(=O)N=C1C | 878 s
COc1ccc(-c2nnc(-c3cc(S(=O)(=O)N(C)C)ccc3Cl)o2)cc1 | 970 s
COc1cc2nccc(Oc3ccc(NC(=O)NC4CC4)c(Cl)c3)c2cc1C(N)=O | 633 s

More lines, now with the values ahead:

RP-LC retention time | Structure (SMILES)
679 s | CCOC(=O)N1CCC(NC(=O)C2CCCN(c3ncnc4c3oc3ccccc34)C2)CC1 (stereo unspecified)
654 s | Cc1ccc2[nH]c(=O)c(CCC(=O)N3CCCN(c4ncccn4)CC3)cc2c1
1000 s | Cc1nn(-c2ccccc2)c(C)c1S(=O)(=O)N1CCC(C(=O)Nc2cc(F)ccc2F)CC1
584 s | CCN1CCN(C(=O)c2cc3n(n2)CC(C)(C(=O)NC2CCCCC2)N(C)C3=O)CC1 (stereo unspecified)
578 s | CCC(=O)N1CCN(c2nc(C)cc(N3CCOCC3)n2)CC1
610 s | Cc1c(-c2nnc(C3CC3)o2)c(S(=O)(=O)N2CCN(C(C)C)CC2)c(C)n1C
711 s | CCc1noc2nc(C)nc(N3CCCC(C(=O)NC4CC4)C3)c12 (stereo unspecified)
609 s | CCn1ccc(C(=O)N2CCN(C(=O)N3C[C@H]4C[C@H](C3)[C@H]3CCCC(=O)N3C4)CC2)n1
572 s | Cc1cc(N2CCN(C)CC2)nc2ccc(NC(=S)NCCC(C)C)cc12
1210 s | CSc1ccccc1NC(=O)c1c(C)sc2ncnc(N3CCCC(C)C3)c12 (stereo unspecified)
751 s | CCOc1ccccc1CNC(=O)C1CCN(Cc2cn(C)c3ccc(Cl)cc23)CC1
679 s | COc1ccc(CNC(=O)c2[nH]c3cc(C)sc3c2CN2CCCC2)cc1
609 s | CCc1nnc2nc(N3CCN(C(=O)c4ccc(N(C)C)cc4)CC3)cc(C)n12
709 s | CC(C)NC(=O)C1CCCN(c2nc3ncn(CC(=O)Nc4ccc5c(c4)CCC5)c(=O)c3s2)C1 (stereo unspecified)
766 s | CCOC(=O)c1nn(-c2ccc(F)cc2)c(=O)cc1NCC1CCCO1 (stereo unspecified)
567 s | Cc1nc([C@H]2CCN(Cc3cc(Cl)ccc3F)C[C@H]2N(C)C)n[nH]1

RP-LC retention time | Structure (SMILES)
663 s | Cn1c(=O)sc2cc(S(=O)(=O)N3CCC(C(=O)N4CCOCC4)CC3)ccc21
774 s | Cc1noc(-c2nn(C)c3c2CN(C(=O)c2ccc(Br)cc2)CC3)n1
581 s | O=C(O)C1CCN(C(=O)Cc2n[nH]c(=O)c3ccccc23)CC1
957 s | CC1(C)CC(=O)c2cn(-c3ccc(F)cc3)c(=O)c(C(=O)NC3CCCC3)c2C1
800 s | Cc1cc(C)c(C(=O)N2CCC(CC(=O)NCc3ccc(Cl)cc3)CC2)[nH]1
933 s | COc1ccccc1-c1noc(C2CCCN2C(=O)Nc2ccccc2C(F)(F)F)n1 (stereo unspecified)
627 s | CC(=O)N(C)CCc1noc(C2CN(C(=O)Cc3cccs3)C2)n1
619 s | CCc1noc(-c2ccc(SCC(=O)N3CCN(c4ccccn4)CC3)nc2)n1
735 s | Cc1[nH]c(C(=O)N2CCC(CC(=O)N3CCCC3)CC2)c(C)c1C(=O)OC(C)C
972 s | COc1ccc(-c2noc(C3CCCN3C(=O)Nc3cccc(Br)c3)n2)cc1 (stereo unspecified)
626 s | Cc1cc(N2CCN(C(=O)Nc3ccccc3F)CC2)nc(N2CCCC2)n1
603 s | O=C(CSc1ccc(N2CCCC(C(=O)NC3CC3)C2)nn1)NCc1ccccc1 (stereo unspecified)
1100 s | COc1c(C(=O)NC2CCCC2)sc2cccc(F)c12
685 s | CCC(=O)NCCc1csc(C2CCCN(C(=O)C(C)(C)C)C2)n1 (stereo unspecified)
1110 s | Cc1cccc(N2CCN(c3ccc4cc(S(=O)(=O)N5CCCCC5)ccc4n3)CC2C)c1 (stereo unspecified)
